A word on the AUC(0-inf): it is the area under the concentration-time curve extrapolated to infinity. Higher therefore signals high exposure.

Data on five compounds can be found in PMC7754409 (Journal of Clinical Pharmacology, 2020).

The format of data set [1] is in vivo, human. As to conditions: for AUC(0-inf): human, plasma, AUCinf, GM (CV%), total AUCinf; for distribution of exposure (AUCinf, Cmax) across Child-Pugh classifications: subjects with normal NCIc, box plots Figures 2A, 3.
The conditions of data set [2]: cited from earlier work.
Where [3] appears, read: any degree of HI based on Child-Pugh.
Setting [4] is: Child-Pugh mild and moderate HI.

The structures appear in SMILES notation. Where two headings read alike, the source gives them in different places.

Turning to `CNC(=O)c1ccccc1Sc1ccc2c(/C=C/c3ccccn3)n[nH]c2c1` [Axitinib, axitinib], the AUC(0-inf) in data set [1] (Child-Pugh mild HI group) is 122 ng·h/mL; in data set [1] (Child-Pugh moderate HI group) it was 304 ng·h/mL; in data set [1] (NCIc mild group) it was 210 ng·h/mL; in data set [1] (NCIc moderate group), 410 ng·h/mL; in data set [1] (NCIc normal group), 137 ng·h/mL. In data set [1], the “distribution of exposure (AUCinf, Cmax) across Child-Pugh classifications” value was “appeared similar”. Also, the “effect of HI on axitinib exposure (Cmax and AUCinf) versus normal” value in data set [2] (Child-Pugh mild HI) was “did not affect”. The “higher AUCinf (exposure) compared with normal” value in data set [2] (Child-Pugh moderate HI) is 2 fold.
As for `CC(=O)c1c(C)c2cnc(Nc3ccc(N4CCNCC4)cn3)nc2n(C2CCCC2)c1=O` [Palbociclib, palbociclib], the “unbound AUCinf of mild group compared with normal hepatic function” value in data set [1] (via either classification (Child-Pugh or NCIc)) was “overall similar”. Also, the “mean fraction unbound in plasma” value in data set [2] (across Child-Pugh hepatic function groups) was “increased with worsening hepatic function”.
Consider `COc1cc(Nc2c(C#N)cnc3cc(OCCCN4CCN(C)CC4)c(OC)cc23)c(Cl)cc1Cl` [Bosutinib, bosutinib], for which the “higher AUCinf compared with normal NCIc hepatic function” value in data set [1] (NCIc mild HI) was determined as 40%. Further, the AUC(0-inf) in data set [1] (Child-Pugh mild HI group) stood at 1940 ng·h/mL; in data set [1] (Child-Pugh moderate HI group) it was 1730 ng·h/mL; in data set [1] (Child-Pugh severe HI group), 1660 ng·h/mL; in data set [1] (NCIc mild group), 1580 ng·h/mL; in data set [1] (NCIc moderate group) it was 1860 ng·h/mL; in data set [1] (NCIc normal group) it was 1130 ng·h/mL. The area under the curve AUC(0-inf) in data set [1] (NCIc severe group) was found to be 1350 ng·h/mL. Further, the “distribution of exposure (AUCinf, Cmax) across Child-Pugh classifications” value in data set [1] is listed as “higher exposure”. The “AUCinf in Child-Pugh mild HI compared with Child-Pugh normal” value in data set [1] (within subjects with normal NCI hepatic function) is around 2 fold. For the same compound, the “higher exposure compared with normal hepatic function” value in data set [2] (setting [3]) is on record as around 2 fold. Moreover, the “plasma elimination half-life compared with normal hepatic function” value in data set [2] (setting [3]) is listed as “longer”.
As for `COc1cc2ncnc(Nc3ccc(F)c(Cl)c3)c2cc1NC(=O)/C=C/CN1CCCCC1` [Dacomitinib, dacomitinib], the “exposure (AUCinf and Cmax) of mild and moderate groups compared with normal hepatic function” value in data set [1] (based on either classification system (Child-Pugh or NCIc)) was “similar”. Further, the area under the curve AUC(0-inf) is 811 ng·h/mL in data set [1] (Child-Pugh mild HI group); 682 ng·h/mL in data set [1] (Child-Pugh moderate HI group); 753 ng·h/mL in data set [1] (NCIc mild group); 583 ng·h/mL in data set [1] (NCIc moderate group); 800 ng·h/mL in data set [1] (NCIc normal group); 685 ng·h/mL in data set [1] (NCIc severe group). Also, the “effect of HI on dacomitinib exposure versus normal” value in data set [2] (setting [4]) is reported as “did not alter”.
For the compound `CCN(CC)CCNC(=O)c1c(C)[nH]c(/C=C2\C(=O)Nc3ccc(F)cc32)c1C` [Sunitinib, sunitinib], the AUC(0-inf) was 1510 ng·h/mL in data set [1] (Child-Pugh mild HI group); 1480 ng·h/mL in data set [1] (Child-Pugh moderate HI group); 1690 ng·h/mL in data set [1] (NCIc mild group); 1530 ng·h/mL in data set [1] (NCIc moderate group); 1340 ng·h/mL in data set [1] (NCIc normal group). The “effect of HI on sunitinib exposure (AUCinf and Cmax) versus normal” value in data set [2] (setting [4]) is on record as “did not alter”.
